Measured values as given in ChEMBL document CHEMBL3286249 (Eur J Med Chem, 2014).

Tests used:
Carbonic anhydrase 2 = Carbonic anhydrase 2 (Homo sapiens, UniProt P00918)
Carbonic anhydrase 12 = Carbonic anhydrase 12 (Homo sapiens, UniProt O43570)
Carbonic anhydrase 1 = Carbonic anhydrase 1 (Homo sapiens, UniProt P00915)
Carbonic anhydrase 9 = Carbonic anhydrase 9 (Homo sapiens, UniProt Q16790)

Chain of Carbonic anhydrase 1 (P00915 whole entry): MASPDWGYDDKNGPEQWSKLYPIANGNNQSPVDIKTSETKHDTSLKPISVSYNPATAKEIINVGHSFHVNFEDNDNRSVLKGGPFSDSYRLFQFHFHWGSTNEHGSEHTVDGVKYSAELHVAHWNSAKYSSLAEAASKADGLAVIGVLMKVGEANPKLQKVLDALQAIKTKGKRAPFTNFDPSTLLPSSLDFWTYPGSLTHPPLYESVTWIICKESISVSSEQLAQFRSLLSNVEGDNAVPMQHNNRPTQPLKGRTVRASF
Chain of Carbonic anhydrase 12 (O43570 whole entry): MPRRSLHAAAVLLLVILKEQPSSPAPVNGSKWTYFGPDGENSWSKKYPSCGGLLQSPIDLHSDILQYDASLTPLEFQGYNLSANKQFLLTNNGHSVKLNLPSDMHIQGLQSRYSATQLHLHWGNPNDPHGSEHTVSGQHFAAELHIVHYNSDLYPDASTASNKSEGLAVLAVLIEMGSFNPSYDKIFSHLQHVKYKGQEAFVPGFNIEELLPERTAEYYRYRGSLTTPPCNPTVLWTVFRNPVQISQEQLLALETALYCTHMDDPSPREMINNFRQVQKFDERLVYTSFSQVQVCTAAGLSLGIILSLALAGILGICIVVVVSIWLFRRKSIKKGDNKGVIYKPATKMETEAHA

SMILES	Ki (Carbonic anhydrase 9)	also measured
Cc1nnc(-c2cc(S(N)(=O)=O)c(Cl)cc2Cl)o1	–	Ki (Carbonic anhydrase 2): 8.7 nM; Ki (Carbonic anhydrase 12): 6.3 nM; Ki (Carbonic anhydrase 1): 718 nM
NS(=O)(=O)c1cc(-c2nnc(-c3ccccc3)[nH]2)c(Cl)cc1Cl	9.7 nM	–
NS(=O)(=O)c1cc(-c2nnc(Nc3ccccc3)o2)c(Cl)cc1Cl	13.8 nM	–
NS(=O)(=O)c1cc(-c2nnc(-c3ccccc3)o2)c(Cl)cc1Cl	13.2 nM	–
NS(=O)(=O)c1cc(-c2nnc(-c3ccc(Cl)cc3)o2)c(Cl)cc1Cl	10.9 nM	–
NS(=O)(=O)c1cc(-c2nnc(-c3ccccc3)s2)c(Cl)cc1Cl	13.6 nM	–
NS(=O)(=O)c1cc(NC(=O)Nc2ccccc2)c(Cl)cc1Cl	7 nM	–
NS(=O)(=O)c1cc(NC(=O)NCCCN2CCOCC2)c(Cl)cc1Cl	38 nM	–
NS(=O)(=O)c1cc(NC(=O)N2CCN(Cc3ccc4c(c3)OCO4)CC2)c(Cl)cc1Cl	76 nM	–
NS(=O)(=O)c1cc(C(=O)NNC(=S)Nc2ccccc2)c(Cl)cc1Cl	31 nM	–
NS(=O)(=O)c1cc(C(=O)NNC(=S)Nc2ccc(Cl)cc2)c(Cl)cc1Cl	27 nM	–
Cc1ccc(S(=O)(=O)NC(=O)NNC(=O)c2cc(S(N)(=O)=O)c(Cl)cc2Cl)cc1	15.3 nM	–
NS(=O)(=O)c1cc(C(=O)NNC(=O)c2ccccc2)c(Cl)cc1Cl	10.2 nM	–

Continued by falling Ki (Carbonic anhydrase 9), values first:

Ki (Carbonic anhydrase 9)	SMILES	also measured
18.9 nM	NS(=O)(=O)c1cc(NC(=O)NOCc2ccccc2)c(Cl)cc1Cl	–
15.8 nM	NS(=O)(=O)c1ccc(NC(=O)Nc2cc(S(N)(=O)=O)c(Cl)cc2Cl)cc1	–
15.1 nM	NS(=O)(=O)c1cc(-c2nnc(Nc3ccc(Cl)cc3)o2)c(Cl)cc1Cl	–
12.5 nM	NS(=O)(=O)c1cc(NC(=O)NNC(=O)c2ccccc2)c(Cl)cc1Cl	–
7.1 nM	NS(=O)(=O)c1cc(NC(=O)Nc2ccc(Cl)cc2)c(Cl)cc1Cl	–
5.5 nM	Cc1ccc(C(=O)NNC(=O)c2cc(S(N)(=O)=O)c(Cl)cc2Cl)cc1	–
3.9 nM	NS(=O)(=O)c1cc(C(=O)NNC(=O)c2ccco2)c(Cl)cc1Cl	–
